From patent publication US7592308B2, “F3W variants of the lantibiotic mersacidin and its use” (priority 2004, dated 2009)
In brackets after ≈: the same amount, converted by molar mass. Like-named read-outs stand apart in the source and are kept apart here. Square brackets hold non-standard residues; d marks the D form. Ends that are not written are not given here. Dha = C=C(N)C(=O)O

Key:
E. faecium 4147 VRE = type: cell-based, Enterococcus faecium
Description: (§1) MIC tests were performed with some of the variants of Example 2 on a range of other organisms. The results are shown in Tables 9 and 10 (figures in μg/ml): […]

E. faecium 4147-1 = type: cell-based, Enterococcus faecium
Description: as §1

M. luteus 4698 = type: cell-based, Micrococcus luteus
Description: (§2) A selection of the variants produced in Example 1 above were tested further for activity against a range of bacteria. Minimum inhibitory concentrations (MICs) for all organisms with the exception of Streptococcus pneumoniae were determined by two-fold serial antibiotic dilutions in Mueller-Hinton broth (MHB) supplemented with 50 μg/ml calcium as calcium chloride dihydrate. Minimum inhibitory concentrations (MICs) for S. pneumoniae were determined by two-fold serial antibiotic dilutions in Brain Heart Infusion (BHI) broth supplemented with 50 μg/ml calcium as calcium chloride dihydrate. Antimicrobial agent stock solutions were prepared and stored according to NCCLS standard M7-A6.
(§3) Actively growing broth cultures were diluted to contain […] by adjusting to an absorbance of 0.2-0.3 at 600 nm, equivalent to the McFarland 0.5 standard. They were then diluted a further 1:100 in broth. The assays were performed in duplicate in sterile 96-well microtitre plates in a total volume of 200 μl (160 μl broth, 20 μl antibiotic, 20 μl inoculum) in a concentration range from 64 μg/ml to 0.06 μg/ml. The 12th well of the microtitre plate contained no antimicrobial agent. Vancomycin was used as a reference antibiotic for quality control. Plates were incubated aerobically, shaking, for 18-20 hours at 37° C. with the MIC defined as the lowest concentration of drug that produced no visible growth.

[1] = test system: Micrococcus luteus ATCC4698; assay: Bioassay of culture supernatant against M. luteus; type: cell-based; settings: aqueous phase of chloroform-extracted culture supernatant
Description: The cultures were assayed for production of mersacidin by HPLC and bioassay against Micrococcus luteus ATCC4698. Samples of production cultures (1 ml) were centrifuged at 14000 rpm for 10 minutes. Supernatants were decanted and used undiluted for HPLC and bioassay.
For bioassays, M.luteus was inoculated from frozen stock into 10 ml half-strength Muller-Hinton broth in a 50 ml conical flask, and incubated at 30C with shaking at 250 rpm for approximately 7 hours, 0.3 ml of this culture was used to inoculate 300 ml of Muller-Hinton agar which was poured into a bioassay plate. Wells (6 mm diameter) were made with a cork-borer. Samples of 50 μl of supernatants were added to these wells. The concentration of mersacidin in the samples was calculated by comparing the diameter of inhibition zones of samples against a range of concentrations of a pure mersacidin standard.
Chloramphenicol resistant colonies were selected and grown in 3 ml Tryptic Soy Broth at 30C for 24 hours, 250 rpm and 0.3 ml of these cultures were used to inoculate 7 ml of 2×BPM+300 mM glucose+chloramphenicol (20 mg/l). After five days of incubation at 30C and 250 rpm, a 1 ml sample was collected and centrifuged at 13000 rpm for 10 min, the supernatant was removed, extracted with 1 volume of chloroform and the aqueous phase used for bioassay and HPLC-MS analysis (see accompanying disclosure for method). […] These masses are consistent with production of the expected mature lantibiotic products.
The ligation mixture was used to transform E. coli DH10B (Invitrogen). Ampicillin resistant colonies were selected, grown in LB+ampicillin (100 mg/l) and plasmids were isolated and characterised by sequence analysis. Plasmid encoding the expected mutant (pNB2024) was used to transform E. coli ET12567 and the plasmid obtained from this strains was used to transform Bacillus sp. HIL Y-85,54728 E17A. Chloramphenicol resistant colonies were selected and grown in 3 ml Tryptic Soy Broth at 30C for 24 hours, 250 rpm and 0.3 ml of these cultures were used to inoculate 7 ml of 2×BPM+300 mM glucose+chloramphenicol (20 mg/l). […]

S. pyogenes 16205 = type: cell-based, Streptococcus pyogenes
Description: as §1

S. pyogenes 13608 = type: cell-based, Streptococcus pyogenes
Description: as §1

S. aureus CS = type: cell-based, Staphylococcus aureus
Description: as §1

S. aureus COL MRSA = type: cell-based, Staphylococcus aureus
Description: as §1

S. aureus SG511 = type: cell-based, Staphylococcus aureus
Description: as §1

S. aureus 1012-13 MRSA = type: cell-based, Staphylococcus aureus
Description: as §1

S. pneumoniae R6 = type: cell-based, Streptococcus pneumoniae; settings: Table 8B; BHI broth + 50 μg/ml calcium; duplicate
Description: as §2, §3

E. faecium 19579 = assay: MIC, two-fold serial dilution in broth; type: cell-based, Enterococcus faecium; settings: Table 8A; MHB + 50 μg/ml calcium; duplicate
Description: as §2, §3

E. faecium BM4147 = assay: MIC test, further organisms; type: cell-based, Enterococcus faecium; settings: Table 10; duplicate
Description: as §1

E. faecalis 29212 = assay: MIC, two-fold serial dilution in broth; type: cell-based, Enterococcus faecalis; settings: Table 8A; MHB + 50 μg/ml calcium; duplicate
Description: as §2, §3

S. aureus Mu50 = assay: MIC test, further organisms; type: cell-based, Staphylococcus aureus; settings: Table 10; duplicate
Description: as §1

S. aureus LT 1012-13 = assay: MIC test, further organisms; type: cell-based, Staphylococcus aureus; settings: Table 10; duplicate
Description: as §1

S. aureus SH1000 = type: cell-based, Staphylococcus aureus; settings: Table 8A; MHB + 50 μg/ml calcium; duplicate
Description: as §2, §3

S. aureus COL = type: cell-based, Staphylococcus aureus
Description: as §1

E. faecium 7131121 = assay: MIC, two-fold serial dilution in broth; type: cell-based, Enterococcus faecium; settings: Table 8A; MHB + 50 μg/ml calcium; duplicate
Description: as §2, §3

[2] = Table 8B, MHB + 50 μg/ml calcium, duplicate

## C=C1NC(=O)C2NC(=O)[C@H](CC(C)C)NC(=O)C(NC(=O)[C@@H]3CSC(C)C(NC(=O)[C@H](Cc4ccccc4)NC(=O)C4NC(=O)[C@@H](N)CSC4C)C(=O)N[C@@H](CC(C)C)C(=O)N4CCC[C@H]4C(=O)NCC(=O)N[C@@H](C)C(=O)NCC(=O)NCC(=O)N[C@@H](C(C)C)C(=O)N3)C(C)SC[C@H](NC(=O)[C@H](CCC(=O)O)NC1=O)C(=O)N[C@@H]([C@@H](C)CC)C(=O)NC=CSC2C (stereo partly shown) [G8A, mersacidin G8A]
E. faecium 4147 VRE; Table 9, 16 h
  MIC E. faecium 4147 VRE: 64-16 h, μg/ml
E. faecium 4147 VRE; Table 9, 24 h
  MIC E. faecium 4147 VRE: 128-24 h μg/ml
E. faecium 4147-1; 4147-1
  MIC E. faecium 4147-1: 128 µg/mL (≈ 69.6 µM)
M. luteus 4698; 4698
  MIC M. luteus 4698: 4 µg/mL (≈ 2.17 µM)
[1]
  antibiotic activity in bioassay against M. luteus: has antibiotic activity
S. pyogenes 16205
  MIC S. pyogenes 16205: 1 µg/mL (≈ 0.543 µM)
S. pyogenes 13608
  MIC S. pyogenes 13608: 1 µg/mL (≈ 0.543 µM)
S. aureus CS
  MIC S. aureus CS: 8 µg/mL (≈ 4.35 µM)
S. aureus COL MRSA
  MIC S. aureus COL MRSA: 32 µg/mL (≈ 17.4 µM)
S. aureus SG511
  MIC S. aureus SG511: 8 µg/mL (≈ 4.35 µM)
S. aureus 1012-13 MRSA
  MIC S. aureus 1012-13 MRSA: 16 µg/mL (≈ 8.69 µM)

## C=C1NC(=O)C2NC(=O)[C@H](CC(C)C)NC(=O)C(NC(=O)[C@@H]3CSC(C)C(NC(=O)[C@H](Cc4c[nH]c5ccccc45)NC(=O)C4NC(=O)[C@@H](N)CSC4C)C(=O)N[C@@H](CC(C)C)C(=O)N4CCC[C@H]4C(=O)NCC(=O)NCC(=O)NCC(=O)NCC(=O)N[C@@H](C(C)C)C(=O)N3)C(C)SC[C@H](NC(=O)[C@H](CCC(=O)O)NC1=O)C(=O)N[C@@H]([C@@H](C)CC)C(=O)NC=CSC2C (stereo partly shown) [F3W, mersacidin F3W]
E. faecium 4147 VRE; 4147 VRE
  MIC E. faecium 4147 VRE: 32 µg/mL (≈ 17.2 µM)
E. faecium 4147-1; Table 9, 16 h
  MIC E. faecium 4147-1: 32-16 h, μg/ml
E. faecium 4147-1; Table 9, 23 h
  MIC E. faecium 4147-1: 64-23 h μg/ml
M. luteus 4698; 4698
  MIC M. luteus 4698: 0.5 µg/mL (≈ 0.268 µM)
[1]
  antibiotic activity in bioassay against M. luteus: antibiotic activity comparable to mersacidin
S. pyogenes 16205
  MIC S. pyogenes 16205: 0.125 µg/mL (≈ 0.067 µM)
S. pyogenes 13608
  MIC S. pyogenes 13608: 0.125 µg/mL (≈ 0.067 µM)
S. aureus CS
  MIC S. aureus CS: 4 µg/mL (≈ 2.14 µM)
S. aureus COL MRSA
  MIC S. aureus COL MRSA: 16 µg/mL (≈ 8.58 µM)
S. aureus SG511
  MIC S. aureus SG511: 2 µg/mL (≈ 1.07 µM)
S. aureus 1012-13 MRSA
  MIC S. aureus 1012-13 MRSA: 4 µg/mL (≈ 2.14 µM)

## G8V: mersacidin variant, inactive in bioassay (CTFTLPGVGGVCTLT[Dha]ECIC; thioether (positions not given here); not fully specified; UniProt P43683 49-68, looked up, variant G8V)
[1]
  antibiotic activity in bioassay against M. luteus: inactive

## G8N: mersacidin variant (CTFTLPGNGGVCTLT[Dha]ECIC; thioether (positions not given here); not fully specified; UniProt P43683 49-68, looked up, variant G8N)
S. pneumoniae R6
  MIC S. pneumoniae R6: >64, >64 μg/ml
E. faecium 19579
  MIC E. faecium 19579: >64, >64 μg/ml
E. faecium BM4147
  MIC E. faecium BM4147: >64, >64 μg/ml
E. faecalis 29212
  MIC E. faecalis 29212: >64, >64 μg/ml
S. aureus Mu50
  MIC S. aureus Mu50: >64, >64 μg/ml
S. aureus LT 1012-13
  MIC S. aureus LT 1012-13: >64, >64 μg/ml
S. aureus SH1000
  MIC S. aureus SH1000: >64, >64 μg/ml
S. aureus COL; Table 10, duplicate
  MIC S. aureus COL: >64, >64 μg/ml

## G9H: mersacidin variant (CTFTLPGGHGVCTLT[Dha]ECIC; thioether (positions not given here); not fully specified; UniProt P43683 49-68, looked up, variant G9H)
E. faecium BM4147
  MIC E. faecium BM4147: >64, >64 μg/ml
M. luteus 4698; [2]
  MIC M. luteus 4698: <4, <4 μg/ml
E. faecalis 29212
  MIC E. faecalis 29212: >64, >64 μg/ml
S. aureus Mu50
  MIC S. aureus Mu50: >64, >64 μg/ml
S. aureus LT 1012-13
  MIC S. aureus LT 1012-13: >64, >64 μg/ml
S. aureus COL; Table 10, duplicate
  MIC S. aureus COL: >64, >64 μg/ml

## C=C1NC(=O)C2NC(=O)[C@H](CC(C)C)NC(=O)C(NC(=O)[C@@H]3CSC(C)C(NC(=O)[C@H](Cc4ccccc4)NC(=O)C4NC(=O)[C@@H](N)CSC4C)C(=O)N[C@@H](CC(C)C)C(=O)N[C@@H](Cc4c[nH]cn4)C(=O)NCC(=O)NCC(=O)NCC(=O)NCC(=O)N[C@@H](C(C)C)C(=O)N3)C(C)SC[C@H](NC(=O)[C@H](CCC(=O)O)NC1=O)C(=O)N[C@@H]([C@@H](C)CC)C(=O)NC=CSC2C (stereo partly shown) [P6H]
S. pneumoniae R6
  MIC S. pneumoniae R6: >64, 64 μg/ml
E. faecium 19579
  MIC E. faecium 19579: >64, >64 μg/ml
E. faecium 7131121
  MIC E. faecium 7131121: >64, >64 μg/ml
E. faecium BM4147
  MIC E. faecium BM4147: >64, >64 μg/ml
E. faecalis 29212
  MIC E. faecalis 29212: >64, >64 μg/ml
S. aureus Mu50
  MIC S. aureus Mu50: >64, >64 μg/ml
S. aureus LT 1012-13
  MIC S. aureus LT 1012-13: >64, >64 μg/ml
S. aureus COL; Table 10, duplicate
  MIC S. aureus COL: >64, >64 μg/ml

## C=C1NC(=O)C2NC(=O)[C@H](CC(C)C)NC(=O)C(NC(=O)[C@@H]3CSC(C)C(NC(=O)[C@H](Cc4ccccc4)NC(=O)C4NC(=O)[C@@H](N)CSC4C)C(=O)N[C@@H](CC(C)C)C(=O)N4CCC[C@H]4C(=O)NCC(=O)NCC(=O)N[C@@H](C)C(=O)NCC(=O)N[C@@H](C(C)C)C(=O)N3)C(C)SC[C@H](NC(=O)[C@H](CCC(=O)O)NC1=O)C(=O)N[C@@H]([C@@H](C)CC)C(=O)NC=CSC2C (stereo partly shown) [G9A]
E. faecium BM4147
  MIC E. faecium BM4147: >64, >64 μg/ml
M. luteus 4698; [2]
  MIC M. luteus 4698: <4, <4 μg/ml
E. faecalis 29212
  MIC E. faecalis 29212: >64, >64 μg/ml
S. aureus Mu50
  MIC S. aureus Mu50: >64, >64 μg/ml
S. aureus LT 1012-13
  MIC S. aureus LT 1012-13: >64, >64 μg/ml
S. aureus COL; COL
  MIC S. aureus COL: 64, >64 μg/ml

## P6N: mersacidin variant (CTFTLNGGGGVCTLT[Dha]ECIC; thioether (positions not given here); not fully specified; UniProt P43683 49-68, looked up, variant P6N)
E. faecium BM4147
  MIC E. faecium BM4147: >32, >32 μg/ml
S. aureus Mu50
  MIC S. aureus Mu50: >32, >32 μg/ml
S. aureus LT 1012-13
  MIC S. aureus LT 1012-13: >32, >32 μg/ml
S. aureus COL; Table 10, duplicate
  MIC S. aureus COL: >32, >32 μg/ml
